Where a SMILES comes first, the peptide text is derived from it. [ ]: non-standard residue; d: D form. The star is where a group is joined. Dolaproine = CO[C@@H]([C@@H]1CCCN1)[C@@H](C)C(=O)O; Dil = CC[C@H](C)[C@H](NC)[C@@H](CC(=O)O)OC; X1 = C[C@@H](N*)[C@@H](O)c1ccccc1; NMeV = CN[C@H](C(=O)O)C(C)C

Series [1] relates to 8392B cell line. Kind of series: Two hour toxicity: inhibition of DNA synthesis activity, nontarget cell line. In kind it is cell-based. Conditions: read-out: Mean IC50 value (nM) ± SD, N=3 unless otherwise indicated; 8392B Nontarget Cell Line; 2 hr exposure; 8392B nontarget cell line, 2 hr exposure; mean ± SD, N=3 unless otherwise indicated.
The test system of series [2] is MV522 cell line. Kind of series: cells. Format: cell-based. The settings on record: for IC50: read-out: Mean IC50 value (nM) ± SD, N=3 unless otherwise indicated, MV522 Target Cell Line, 2 hr exposure, MV522 target cell line, mean ± SD, N=3 unless otherwise indicated.
Series [3] concerns 8392B cell line. The experiment in a line: cells. Format: cell-based. Conditions: read-out: Mean IC50 value (nM) ± SD, N=3 unless otherwise indicated, 8392B Nontarget Cell Line, 48 hr exposure, 8392B nontarget cell line, mean ± SD, N=3 unless otherwise indicated.
For series [4], the system named is NCI 60 cell line panel. The experiment in a line: NCI DTP 60 cell line screen assay. Conditions: for Cytotoxicity: ability to actually kill tumor cells versus only inhibiting growth. The source says:
An ADC is engulfed by a tumor cell, transported to the endosomes (pH < 6.0) and then into the lysozomes (pH < 4). […] 4) Cancer cells can become resistant to various toxins and drugs through the development of what is termed multi-drug resistance. This process is known to occur through several different mechanisms.

For orientation: IC50 means the concentration that gives 50% inhibition. `CC1=C(CCCOC(=O)[C@@H]2CCCN2C(=O)[C@H](CO)NC(=O)[C@@H](N)CO)C2=C(C)C3(CC3)[C@@](C)(O)C(=O)C2=C1` [compound 209]: the IC50 in series [1] was more than 90000 nM.
Regarding `CC1=C(COCCBr)C2=C(C)C3(CC3)[C@@](C)(O)C(=O)C2=C1` [compound 020], the values for the IC50 in series [2] and in series [1] were 530 ± 140 nM and 25000 ± 3100 nM, respectively.
For `CC1=C(CCCNC(=O)[C@@H]2CCCN2)C2=C(C)C3(CC3)[C@@](C)(O)C(=O)C2=C1` [compound 202], the IC50 was more than 62000 nM in series [1] and more than 6200 nM in series [3].
Regarding `CC1=C(CSc2nc(O)c3nccnc3n2)C2=C(C)C3(CC3)[C@@](C)(O)C(=O)C2=C1` [compound 153], the IC50 in series [1] is more than 90000 nM.
Turning to `CC1=C(CCCOC(=O)C(N)CC(C)C)C2=C(C)C3(CC3)[C@@](C)(O)C(=O)C2=C1` (some centres unmarked) [compound 176], in series [4], the “MDR Activity” value was “Yes” and the Cytotoxicity result is listed as “Yes”.
`CC1=C(CNS(C)(=O)=O)C2=C(C)C3(CC3)[C@@](C)(O)C(=O)C2=C1` [compound 271]: the half-maximal inhibitory concentration (IC50) was more than 93000 nM in series [1] and more than 9300 nM in series [3].
For `CC1=C(CNC(=O)C2CCCN2)C2=C(C)C3(CC3)[C@@](C)(O)C(=O)C2=C1` (some centres unmarked) [compound 275] the same measures were more than 62000 nM and more than 6200 nM.
`CC(=O)ON(C(C)=O)C(=O)OCCCC1=C(C)C=C2C(=O)[C@](C)(O)C3(CC3)C(C)=C21` [compound 240]: the IC50 in series [1] was more than 24000 nM.
Turning to `CC1=C(CNO)C2=C(C)C3(CC3)[C@@](C)(O)C(=O)C2=C1` [analog 394, (R)-6'-hydroxy-3'-((hydroxyamino)methyl)-2',4',6'-trimethylspiro[cyclopropane-1,5'-inden]-7'(6'H)-one], the Cytotoxicity entry in series [4] is listed as “cytotoxic”.
The same measure, in the same setting: for `CC1=C2C(=C[C@@](C)(C=O)[C@@H]2O)C(=O)[C@](C)(O)C12CC2` [analog 383, (2'R,3'R,6'R)-3',6'-dihydroxy-2',4',6'-trimethyl-7'-oxo-2',3',6',7'-tetrahydrospiro[cyclopropane-1,5'-indene]-2'-carbaldehyde] the value was “cytotoxic”.
As for `COC(=O)C[S+]([O-])CC1=C(C)C=C2C(=O)[C@](C)(O)C3(CC3)C(C)=C21` (some centres unmarked) [compound 263], the IC50 in series [1] came out at 124000 ± 18000 nM.
In the case of `CC1=C(CNO)C2=C(C)C3(CC3)[C@@](C)(O)C(=O)C2=C1` [compound 394], in series [4], the “MDR Activity” value was “Yes” and the Cytotoxicity result was “Yes”.
For `CC1=C2C(=C[C@@](C)(C=O)[C@@H]2O)C(=O)[C@](C)(O)C12CC2` [compound 383], in series [4], the “MDR Activity” value is “Yes” and the Cytotoxicity entry was “Yes”.
Regarding `CC(=O)O[C@@H]1C2=C(C)C3(CC3)[C@@](C)(O)C(=O)C2=C[C@@]1(C)CO` [compound 371], in series [4], the “MDR Activity” value is listed as “Yes” and the Cytotoxicity entry is recorded as “Yes”.
Regarding `C/C(=C\c1csc(C)n1)[C@@H]1C[C@@H]2O[C@@H]2CCC[C@H](C)[C@H](O)[C@@H](C)C(=O)C(C)(C)[C@@H](O)CC(=O)O1` [Epothilone A, reference compound], the Cytotoxicity result in series [4] is “not cytotoxic and No”.
With `CC1=C(CN)C2=C(C)C3(CC3)[C@@](C)(O)C(=O)C2=C1` [compound 270], the IC50 in series [1] is more than 84000 nM.
In the case of `CC1=C(COc2ccc([N+](=O)[O-])cc2)C2=C(C)C3(CC3)[C@@](C)(O)C(=O)C2=C1` [compound 198], the values for the IC50 in series [1] and in series [3] were more than 8200 nM and more than 82000 nM, respectively.
`CC1=C(CCCOC(=O)CNC(=O)OC(C)(C)C)C2=C(C)C3(CC3)[C@@](C)(O)C(=O)C2=C1` [compound 298]: in series [2], the IC50 was more than 7000 nM.
With `CC1=C2C(=CC(C)(C)C2OC(=O)c2ccc(S(=O)(=O)F)cc2)C(=O)C(C)(O)C12CC2` (centres unmarked) [compound 222], the half-maximal inhibitory concentration (IC50) in series [1] amounted to 9300 nM.
For the molecule `CC1=C2C(=C[C@@](C)(COS(C)(=O)=O)[C@@H]2O)C(=O)[C@](C)(O)C12CC2` [analog 362, ((2'S,3'R,6'R)-3',6'-dihydroxy-2',4',6'-trimethyl-7'-oxo-2',3',6',7'-tetrahydrospiro[cyclopropane-1,5'-inden]-2'-yl)methyl methanesulfonate], in series [4], the Cytotoxicity entry is on record as “cytotoxic”.
For `CC1=C(COC(=O)CCCCCN2C(=O)C=CC2=O)C2=C(C)C3(CC3)[C@@](C)(O)C(=O)C2=C1` [compound 217], the IC50 in series [3] is more than 7000 nM.
For `CC1=CC2=C(C)C3(CC3)[C@@](C)(O)/C(=N/O)C2=C1` [analog 224, (R,E)-6'-hydroxy-2',4',6'-trimethylspiro[cyclopropane-1,5 '-inden]-7'(6'H)-one oxime], the toxicity result in series [2] (target and nontarget cell line, in words) is on record as “minimal toxicity”.
In the case of `CC[C@H](C)[C@@H]([C@@H](CC(=O)N1CCC[C@H]1[C@H](OC)[C@@H](C)C(=O)N[C@H](C)[C@@H](O)c1ccccc1)OC)N(C)C(=O)[C@@H](NC(=O)[C@@H](NC)C(C)C)C(C)C` [MMAE, N-methylvaline-valine-dolaisoleuine-dolaproine-norephedrine, reference compound] (H-[NMeV]V[Dil][Dolaproine]-X1), in series [4], the “MDR Activity” value was “No” and the Cytotoxicity result was “No”. Further, in series [4] (listed as MMA), the “MDR Activity” value was “not MDR active” and the Cytotoxicity result is “not cytotoxic”.
`CC(=O)O[C@@H]1C2=C(C)C3(CC3)[C@@](C)(O)C(=O)C2=C[C@@]1(C)CO` [analog 371, (2'S,3'R,6'R)-6'-hydroxy-2'-(hydroxymethyl)-2',4',6'-trimethyl-7'-oxo-2',3',6',7'-tetrahydrospiro[cyclopropane-1,5'-inden]-3'-yl acetate]: the Cytotoxicity entry in series [4] was “cytotoxic”.
Turning to `CC1=C(CCCNC(=O)C(F)(F)F)C2=C(C)C3(CC3)[C@@](C)(O)C(=O)C2=C1` [compound 268], in series [3], the IC50 is more than 8000 nM.
Regarding `CC(=O)ON(C(C)=O)c1ccc(C(=O)OC[C@]2(C)C=C3C(=O)[C@](C)(O)C4(CC4)C(C)=C3C2O)cc1` (some centres unmarked) [compound 136], the IC50 in series [1] was more than 6200 nM.
With `CC(=O)OC[C@]1(C)C=C2C(=O)[C@](C)(O)C3(CC3)C(C)=C2[C@H]1OC(=O)N(C)CCN(C)C(=O)OC(C)(C)C` [compound 334], in series [4], the “MDR Activity” value is “Yes” and the Cytotoxicity entry is listed as “Yes”.
Take `CC1=C(CCCNC(=O)N2CCC(N3CCCCC3)CC2)C2=C(C)C3(CC3)[C@@](C)(O)C(=O)C2=C1` [compound 260]: the IC50 in series [1] was more than 64000 nM.
For the molecule `CC1=C(CCCNC(=O)OCC2=C(C(=O)O)N3C(=O)[C@H](NC(=O)Cc4cccs4)[C@@H]3S(=O)(=O)C2)C2=C(C)C3(CC3)[C@@](C)(O)C(=O)C2=C1` [compound 274], the IC50 in series [1] was more than 46000 nM; in series [3], more than 4500 nM.
In the case of `CC(=O)OC[C@]1(C)C=C2C(=O)[C@](C)(O)C3(CC3)C(C)=C2[C@H]1OC(=O)N(C)CCN(C)C(=O)OC(C)(C)C` [analog 334, ((2'S,3'R,6'R)-3'-(((2-((tert-butoxycarbonyl)(methyl)amino)ethyl)(methyl)carbamoyl)oxy)-6'-hydroxy-2',4',6'-trimethyl-7'-oxo-2',3',6',7'-tetrahydrospiro[cyclopropane-1,5' - inden]-2' - yl)methylacetate], the Cytotoxicity entry in series [4] is on record as “cytotoxic”.
As to `COc1ccc(NS(=O)(=O)OCC2=C(C)C=C3C(=O)[C@](C)(O)C4(CC4)C(C)=C32)cc1` [compound 269], the IC50 in series [3] is more than 7000 nM.
Turning to `CC1=C2C(=C[C@@](C)(COS(C)(=O)=O)[C@@H]2O)C(=O)[C@](C)(O)C12CC2` [compound 362], in series [4], the “MDR Activity” value is reported as “Yes” and the Cytotoxicity result was “Yes”.
Turning to `CC1=C(COc2ccccc2)C2=C(C)C3(CC3)[C@@](C)(O)C(=O)C2=C1` [compound 199], the IC50 in series [1] is more than 93000 nM; in series [3], more than 9300 nM.
On to `CC1=C(CCCOC(=O)[C@@H]2CCCN2)C2=C(C)C3(CC3)[C@@](C)(O)C(=O)C2=C1` [compound 196], for which the IC50 in series [3] is more than 9200 nM.
Turning to `CC1=C([C@@H]2CCOS(=O)(=O)N2)C2=C(C)C3(CC3)[C@@](C)(O)C(=O)C2=C1` [compound 259], the IC50 in series [1] is more than 85000 nM.
For the molecule `CC1=C(CNS(N)(=O)=O)C2=CC3(CC3)C(C)(O)C(=O)C2=C1` (centres unmarked) [compound 283], the IC50 in series [3] was more than 9300 nM.
For the molecule `CONC(=O)NCC1=C(C)C=C2C(=O)[C@](C)(O)C3(CC3)C(C)=C21` [compound 278], the IC50 is more than 94000 nM in series [1] and more than 9400 nM in series [3].
Regarding `CC1=C(Cn2c(=O)cc[nH]c2=O)C2=C(C)C3(CC3)[C@@](C)(O)C(=O)C2=C1` [compound 284], the IC50 in series [3] is more than 8800 nM.
For the molecule `COc1cc2cc(c1Cl)N(C)C(=O)C[C@H](OC(=O)[C@H](C)N(C)C(=O)CCS)[C@]1(C)O[C@H]1[C@H](C)[C@@H]1C[C@@](O)(NC(=O)O1)[C@H](OC)/C=C/C=C(\C)C2` [DM1, reference compound], in series [4], the Cytotoxicity result was “not cytotoxic and No”.
Consider `CC1=C(CN=[N+]=[N-])C2=C(C)C3(CC3)[C@@](C)(O)C(=O)C2=C1` [compound 193], for which the IC50 in series [3] was more than 11000 nM.
The same measure, in the same setting: for `CC1=C(Cn2cc(F)c(=O)[nH]c2=O)C2=C(C)C3(CC3)[C@@](C)(O)C(=O)C2=C1` [compound 286] the value was more than 8800 nM; for `CC1=C(CCCOC(=O)[C@@H]2CCCN2C(=O)[C@@H](N)CO)C2=C(C)C3(CC3)[C@@](C)(O)C(=O)C2=C1` [compound 203], more than 5500 nM.
As for `CC1=C(CNC(=O)C(N)CC(C)C)C2=C(C)C3(CC3)[C@@](C)(O)C(=O)C2=C1` (some centres unmarked) [compound 276], the IC50 in series [1] is more than 61000 nM; in series [3], more than 6100 nM.
On to `CON(CC1=C(C)C=C2C(=O)[C@](C)(O)C3(CC3)C(C)=C21)C(=O)CN` [compound 267], for which the IC50 in series [1] is more than 90000 nM.
